“And” between values parts separate entries of the source, which are not always exact repeats. Identical values can stand only once.
Test system: 699152-130-R-J1-PDC complex spheroid growth
Assay: Anticancer human tumor 699152-130-R-J1-PDC patient-derived pancreatic carcinoma cell line growth inhibition [AhR]
Conditions: for viability, T/C: stronger effect = lower value
In short: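 Complex tumor spheroids co-cultured with HUVEC and human MSC stroma; AhR antagonists tested in combination with standard-of-care and investigational agents. Top concentration at or near clinical Cmax (else 10 microM), half-log dilutions; growth expressed as percent test/control.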

[1] = curve of first compound, second compound 0.1 µM
[2] = curve of first compound, second compound 0.316 µM
[3] = curve of first compound, second compound 1 µM
[4] = curve of first compound, second compound 3.16 µM
[5] = curve of first compound, second compound 10 µM
[6] = second compound 0.1 µM, first compound 0.00316 µM
[7] = second compound 0.1 µM, first compound 0.01 µM
[8] = second compound 0.1 µM, first compound 0.0316 µM
[9] = second compound 0.1 µM, first compound 0.1 µM
[10] = second compound 0.316 µM, first compound 0.00316 µM
[11] = second compound 0.316 µM, first compound 0.01 µM
[12] = second compound 0.316 µM, first compound 0.0316 µM
[13] = second compound 0.316 µM, first compound 0.1 µM
[14] = second compound 1 µM, first compound 0.00316 µM
[15] = second compound 1 µM, first compound 0.01 µM
[16] = second compound 1 µM, first compound 0.0316 µM
[17] = second compound 1 µM, first compound 0.1 µM
[18] = second compound 3.16 µM, first compound 0.00316 µM
[19] = second compound 3.16 µM, first compound 0.01 µM
[20] = second compound 3.16 µM, first compound 0.0316 µM
[21] = second compound 3.16 µM, first compound 0.1 µM
[22] = second compound 10 µM, first compound 0.00316 µM
[23] = second compound 10 µM, first compound 0.01 µM
[24] = second compound 10 µM, first compound 0.0316 µM
[25] = second compound 10 µM, first compound 0.1 µM
[26] = second compound 0.1 µM, first compound 0.00949 µM
[27] = second compound 0.1 µM, first compound 0.03 µM
[28] = second compound 0.1 µM, first compound 0.0949 µM
[29] = second compound 0.1 µM, first compound 0.3 µM
[30] = second compound 0.316 µM, first compound 0.00949 µM
[31] = second compound 0.316 µM, first compound 0.03 µM
[32] = second compound 0.316 µM, first compound 0.0949 µM
[33] = second compound 0.316 µM, first compound 0.3 µM
[34] = second compound 1 µM, first compound 0.00949 µM
[35] = second compound 1 µM, first compound 0.03 µM
[36] = second compound 1 µM, first compound 0.0949 µM
[37] = second compound 1 µM, first compound 0.3 µM
[38] = second compound 3.16 µM, first compound 0.00949 µM
[39] = second compound 3.16 µM, first compound 0.03 µM
[40] = second compound 3.16 µM, first compound 0.0949 µM
[41] = second compound 3.16 µM, first compound 0.3 µM
[42] = second compound 10 µM, first compound 0.00949 µM
[43] = second compound 10 µM, first compound 0.03 µM
[44] = second compound 10 µM, first compound 0.0949 µM
[45] = second compound 10 µM, first compound 0.3 µM
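Further: compound exposure lasted 7 days after spheroids had grown for 3 days.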

## CC1COCCN1c1cc(-c2ccnn2C)c2ccnc(-c3ccn[nH]3)c2n1 (configuration not stated) + CC(CO)NC(=O)c1cc(-c2ccc(Cl)cc2)nn(-c2cnn(C)c2)c1=O
[1]
  IC50: > 1000 nM
[2]
  IC50: > 1000 nM
[3]
  IC50: > 1000 nM
[4]
  IC50: > 1000 nM
[5]
  IC50: > 1000 nM
[6]
  viability, T/C: 105%
[7]
  viability, T/C: 112%
[8]
  viability, T/C: 112%
[9]
  viability, T/C: 94.2%
Second compound 0.1 µM, first compound 0.316 µM
  viability, T/C: 86.8%
Second compound 0.1 µM, first compound 1 µM
  viability, T/C: 63.3%
[10]
  viability, T/C: 102%
[11]
  viability, T/C: 100%
[12]
  viability, T/C: 110%
[13]
  viability, T/C: 92.1%
Second compound 0.316 µM, first compound 0.316 µM
  viability, T/C: 77.7%
Second compound 0.316 µM, first compound 1 µM
  viability, T/C: 59.1%
[14]
  viability, T/C: 102%
[15]
  viability, T/C: 101%
[16]
  viability, T/C: 105%
[17]
  viability, T/C: 87.5%
Second compound 1 µM, first compound 0.316 µM
  viability, T/C: 72.3%
Second compound 1 µM, first compound 1 µM
  viability, T/C: 58.3%
[18]
  viability, T/C: 85.8%
[19]
  viability, T/C: 105%
[20]
  viability, T/C: 84.6%
[21]
  viability, T/C: 80.1%
Second compound 3.16 µM, first compound 0.316 µM
  viability, T/C: 74%
Second compound 3.16 µM, first compound 1 µM
  viability, T/C: 65%
[22]
  viability, T/C: 97.7%
[23]
  viability, T/C: 82.7%
[24]
  viability, T/C: 81.5%
[25]
  viability, T/C: 73.9%
Second compound 10 µM, first compound 0.316 µM
  viability, T/C: 64.6%
Second compound 10 µM, first compound 1 µM
  viability, T/C: 58.1%

## CC[C@@]1(O)C(=O)OCc2c1cc1n(c2=O)Cc2cc3c(CN(C)C)c(O)ccc3nc2-1 + Cc1cncc(-c2nc(NCCc3c[nH]c4ccccc34)c3ncn(C(C)C)c3n2)c1
[1]
  IC50: > 100 nM
[2]
  IC50: > 100 nM
[3]
  IC50: > 100 nM
[4]
  IC50: > 100 nM
[5]
  IC50: < 0.316 nM
Second compound 0.1 µM, first compound 0.000316 µM
  viability, T/C: 102%
Second compound 0.1 µM, first compound 0.001 µM
  viability, T/C: 98.5%
[6]
  viability, T/C: 100%
[7]
  viability, T/C: 101%
[8]
  viability, T/C: 80.7%
[9]
  viability, T/C: 69.6%
Second compound 0.316 µM, first compound 0.000316 µM
  viability, T/C: 101%
Second compound 0.316 µM, first compound 0.001 µM
  viability, T/C: 98.4%
[10]
  viability, T/C: 98%
[11]
  viability, T/C: 93.9%
[12]
  viability, T/C: 80.3%
[13]
  viability, T/C: 66.5%
Second compound 1 µM, first compound 0.000316 µM
  viability, T/C: 105%
Second compound 1 µM, first compound 0.001 µM
  viability, T/C: 107%
[14]
  viability, T/C: 105%
[15]
  viability, T/C: 99.4%
[16]
  viability, T/C: 83.9%
[17]
  viability, T/C: 62.9%
Second compound 3.16 µM, first compound 0.000316 µM
  viability, T/C: 112%
Second compound 3.16 µM, first compound 0.001 µM
  viability, T/C: 92.8%
[18]
  viability, T/C: 95%
[19]
  viability, T/C: 93.7%
[20]
  viability, T/C: 64%
[21]
  viability, T/C: 54.7%
Second compound 10 µM, first compound 0.000316 µM
  viability, T/C: 12.6%
Second compound 10 µM, first compound 0.001 µM
  viability, T/C: 11.5%
[22]
  viability, T/C: 10.6%
[23]
  viability, T/C: 12.1%
[24]
  viability, T/C: 11.1%
[25]
  viability, T/C: 14.1%

## O=C(C=Cn1cnc(-c2cc(C(F)(F)F)cc(C(F)(F)F)c2)n1)NNc1cnccn1
Compound 0.00949 µM
  viability, T/C: 99.1% and 89.9% and 89%
Compound 0.03 µM
  viability, T/C: 98.2% and 95.7% and 107%
Compound 0.0949 µM
  viability, T/C: 92% and 79.8% and 82.9%
Compound 0.3 µM
  viability, T/C: 73.7% and 77.4% and 74.8%
Compound 0.949 µM
  viability, T/C: 69.4% and 79.6% and 90%
Compound 3 µM
  viability, T/C: 77.4% and 72.9% and 69.9%
Curve of compound
  IC50: > 3000 nM

## Nc1ncn(C2CC(O)C(CO)S2)c(=O)n1 (configuration not stated) + CC(CO)NC(=O)c1cc(-c2ccc(Cl)cc2)nn(-c2cnn(C)c2)c1=O
[1]
  IC50: > 300 nM
[2]
  IC50: > 300 nM
[3]
  IC50: > 300 nM
[4]
  IC50: > 300 nM
[5]
  IC50: > 300 nM
Second compound 0.1 µM, first compound 0.000949 µM
  viability, T/C: 98%
Second compound 0.1 µM, first compound 0.003 µM
  viability, T/C: 104%
[26]
  viability, T/C: 85.7%
[27]
  viability, T/C: 103%
[28]
  viability, T/C: 97.8%
[29]
  viability, T/C: 94.2%
Second compound 0.316 µM, first compound 0.000949 µM
  viability, T/C: 89.6%
Second compound 0.316 µM, first compound 0.003 µM
  viability, T/C: 111%
[30]
  viability, T/C: 105%
[31]
  viability, T/C: 93.1%
[32]
  viability, T/C: 93.8%
[33]
  viability, T/C: 87.1%
Second compound 1 µM, first compound 0.000949 µM
  viability, T/C: 93.8%
Second compound 1 µM, first compound 0.003 µM
  viability, T/C: 101%
[34]
  viability, T/C: 89.1%
[35]
  viability, T/C: 95.3%
[36]
  viability, T/C: 94.1%
[37]
  viability, T/C: 86.1%
Second compound 3.16 µM, first compound 0.000949 µM
  viability, T/C: 86.3%
Second compound 3.16 µM, first compound 0.003 µM
  viability, T/C: 88%
[38]
  viability, T/C: 91.8%
[39]
  viability, T/C: 88.9%
[40]
  viability, T/C: 90.1%
[41]
  viability, T/C: 85%
Second compound 10 µM, first compound 0.000949 µM
  viability, T/C: 80.7%
Second compound 10 µM, first compound 0.003 µM
  viability, T/C: 91.8%
[42]
  viability, T/C: 84.6%
[43]
  viability, T/C: 87.2%
[44]
  viability, T/C: 87%
[45]
  viability, T/C: 86%

## O=C(C=Cn1cnc(-c2cc(C(F)(F)F)cc(C(F)(F)F)c2)n1)NNc1cnccn1 + Cc1cncc(-c2nc(NCCc3c[nH]c4ccccc34)c3ncn(C(C)C)c3n2)c1
[1]
  IC50: > 3000 nM
[2]
  IC50: > 3000 nM
[3]
  IC50: > 3000 nM
[4]
  IC50: > 3000 nM
[5]
  IC50: < 9.49 nM
[26]
  viability, T/C: 97.5%
[27]
  viability, T/C: 97.4%
[28]
  viability, T/C: 86.4%
[29]
  viability, T/C: 81.4%
Second compound 0.1 µM, first compound 0.949 µM
  viability, T/C: 69.4%
Second compound 0.1 µM, first compound 3 µM
  viability, T/C: 67.8%
[30]
  viability, T/C: 83.2%
[31]
  viability, T/C: 92%
[32]
  viability, T/C: 89.2%
[33]
  viability, T/C: 76.3%
Second compound 0.316 µM, first compound 0.949 µM
  viability, T/C: 76.8%
Second compound 0.316 µM, first compound 3 µM
  viability, T/C: 74.2%
[34]
  viability, T/C: 102%
[35]
  viability, T/C: 111%
[36]
  viability, T/C: 92.9%
[37]
  viability, T/C: 87.1%
Second compound 1 µM, first compound 0.949 µM
  viability, T/C: 79.7%
Second compound 1 µM, first compound 3 µM
  viability, T/C: 72.2%
[38]
  viability, T/C: 118%
[39]
  viability, T/C: 113%
[40]
  viability, T/C: 93.9%
[41]
  viability, T/C: 97.2%
Second compound 3.16 µM, first compound 0.949 µM
  viability, T/C: 76.2%
Second compound 3.16 µM, first compound 3 µM
  viability, T/C: 70.5%
[42]
  viability, T/C: 20.1%
[43]
  viability, T/C: 22.6%
[44]
  viability, T/C: 25.2%
[45]
  viability, T/C: 26.4%
Second compound 10 µM, first compound 0.949 µM
  viability, T/C: 35%
Second compound 10 µM, first compound 3 µM
  viability, T/C: 32.9%

Reference: PubChem BioAssay AID1919001 (Molecular Pharmacology Branch, DTP, NCI, 2023)
